The nature of the series: Maximum mass content of ester added to a gum-in-silicone-oil solution without precipitation of the gum. It is filed as physicochemical. The following applies: 25° C.; 13% gum solution in polydimethylsiloxane (Q2-1403). On the procedure: The maximum mass content of ester which may be added, at 25° C., to a solution of gum in a silicone oil without observing precipitation of the gum was measured.
As to `CCCCCCCCC(CCCCCC)COC(=O)CCCCCC(C)C` (stereo not shown) [2-hexyldecyl isononanoate], the “Maximum mass content of ester which may be added without observing precipitation of the gum” value was determined as 72%.

Regarding `CC(C)CCCCCCCCCCCCCCCOC(=O)CCCCCC(C)C` [Isostearyl isononanoate], the “Maximum mass content of ester which may be added without observing precipitation of the gum” value was 60%.

Take `CC(C)CCCCCCCCCCCCCCCOC(=O)C(C)(C)C` [Isostearyl neopentanoate]: the “Maximum mass content of ester which may be added without observing precipitation of the gum” value stood at 68%.

Take Octyldodecyl neopentanoate: the “Maximum mass content of ester which may be added without observing precipitation of the gum” value is reported as “to at least 1000%”.

Values taken from patent US7316814B2, “Cosmetic composition comprising a silicone-containing compound and a fatty acid ester” (L'Oreal, priority 1995, dated 2008).
